Experiments:
[1] = system: human ovarian cancer cells (SKOV-3); test: Growth, proliferation and morphology of ovarian cancer cells; type: cell-based; conditions: DFMO or SAM486A
From the text: (Bachmann, A S, (2004) Hawaii Med. Journal, 63:371-373, which is incorporated herein by reference in its entirety). […] Micrographs were taken using an inverted phase contrast microscope (Nikon). In comparison with the ovarian cancer cells SKOV-3, the growth and proliferation of NB cells LAN-1 was inhibited much more drastically and caused significant morphological changes after only 3 days of treatment.
Similar effects were already apparent after 1-2 days (not shown). By comparison, the treatment of human melanoma cells (MALME-3) with polyamine inhibitors required more extensive incubation times (8-12 days) and led to less obvious rearrangements in cell structures (Kramer et al., (2001). Cancer Res, 61, 7754-62, which is incorporate herein by reference in its entirety).

[2] = SAM486A, Phase II, relapsed or refractory non-Hodgkin's lymphoma; cited from earlier work
[3] = system: retinoblastoma protein Rb; test: Western blot of Rb phosphorylation in inhibitor-treated NB cells; type: cell-based, human; conditions: LAN-1 and NMB-7; days 2 and 3
Procedure: To further investigate the mechanism that regulates G1 arrest in LAN-1 and NMB-7 cells, and to define the changes in associated protein responses, the cell cycle-related proteins p21^Waf1/Cip1, p27^Kip1, p53, Rb, and MYCN in NB cell lysates were studied. Cells were analyzed on days 1, 2, and 3. Equal amounts of total protein were loaded in all experiments. Proteins were scanned and the ratio of hypophosphorylated Rb (pRb) (lower band):hyperphosphorylated Rb (ppRb) (upper band) was calculated (b). MYCN bands were quantified and normalized relative to β-actin. Values are presented as percentage (%) of controls of day 1, 2 or 3. (c). The data are representative of at least three independent experiments.
The retinoblastoma protein Rb can be regulated through the action of p27^Kip1. Rb phosphorylation reduces the levels of functional Rb/E2F repressor complexes and activates E2F-responsive promoters important for moving the cell through the G1/S phase of the cell cycle. […] Rb hypophosphorylation was further confirmed with total Rb showing a visible mobility shift from a hyperphosphorylated form (upper band) to a hypophosphorylated form (lower band). […] Hypophosphorylation of Rb is a known consequence of p27^Kip1 induction, and this is in strong agreement with our findings.

LAN-1 cells = test: Cell growth and proliferation (cell number) and morphology, LAN-1; type: cell-based, human; conditions: LAN-1, 3 days; 5 mM DFMO, 10 μM SAM486A
Procedure: (§1) Cell numbers are expressed as percentage (%) of control cell growth and proliferation. Each sample was measured in duplicate and the data represent the mean of three separate determinations±SD. The observed growth and proliferation inhibition of LAN-1 and NMB-7 cells was accompanied by dramatic alterations in cell morphology (FIG. 4b). […] On day 3, both untreated and treated cells were washed free of inhibitor by washing twice with PBS, reseeded in new medium (NM) (solid black arrow) without inhibitors at the starting cell density (dashed black arrow) and the experiment was continued for an additional 7 days. While the untreated LAN-1 and NMB-7 cells grew normally and reached similar cell densities after an additional 3 days (day 6 of the experiment), the initially treated LAN-1 and NMB-7 cells resumed proliferation only slowly and reached about 30% and 58% of control cell growth and proliferation, respectively, on day 10 of the experiment (FIG. 6). Cell numbers were determined using a hemocytometer and trypan blue reagent, and each data point is representative of three separate determinations±SD. […] (not shown). Human NB cell lines were provided by Dr. Robert Seeger (LAN-1; University of California, Los Angeles, Calif.), Dr. Nai-Kong Cheung (NMB-7; Memorial Sloan-Kettering Cancer Center, NY), and the American Type Culture Collection (SK-N-SH; ATCC, Manassas, Va.). […]

NMB-7 cells = test: Cell growth and proliferation (cell number) and morphology, NMB-7; type: cell-based, human; conditions: NMB-7, 3 days; 5 mM DFMO, 10 μM SAM486A
Procedure: as §1

ODC = biological target: T1, ODC (Homo sapiens, UniProt P11926); test: ODC activity after preincubation of cell extracts with DFMO; type: biochemical; conditions: extracts from untreated or DFMO-treated LAN-1 cells, 100 μM DFMO, 30 min at 37° C.
T1 construct: enzyme activities were measured in cell lysates; endogenous in cells
T1 sequence (P11926 1-461): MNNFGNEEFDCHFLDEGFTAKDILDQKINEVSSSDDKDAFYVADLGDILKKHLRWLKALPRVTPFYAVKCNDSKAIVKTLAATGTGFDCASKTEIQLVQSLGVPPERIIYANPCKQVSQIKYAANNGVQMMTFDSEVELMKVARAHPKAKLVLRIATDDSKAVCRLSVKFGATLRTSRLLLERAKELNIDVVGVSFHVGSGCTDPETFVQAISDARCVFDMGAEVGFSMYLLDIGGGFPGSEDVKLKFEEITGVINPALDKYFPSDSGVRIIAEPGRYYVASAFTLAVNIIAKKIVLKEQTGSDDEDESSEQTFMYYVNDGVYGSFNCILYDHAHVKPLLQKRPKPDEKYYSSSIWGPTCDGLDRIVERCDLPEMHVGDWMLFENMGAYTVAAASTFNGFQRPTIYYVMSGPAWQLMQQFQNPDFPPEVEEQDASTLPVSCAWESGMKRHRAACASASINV
Procedure: ODC and AdoMetDC enzyme activities were determined using a standard assay known in the art. In brief, NB cells were washed twice with ice-cold PBS and harvested in 50 mM sodium phosphate buffer (pH 7.2), 0.1 mM EDTA, 2.5 mM DTT, supplemented with 1× protease inhibitor cocktail (Roche Molecular Biochemicals, Indianapolis, Ind.). […] Cells were lysed by three freeze/thaw cycles and cell lysates were prepared by centrifugation for 20 minutes at 14,000 rpm and 4° C. ODC activity was measured in a reaction mixture that contained 20 μM L-[1-^14C]ornithine (47.70 mCi/mmol; NEN Life Science Products, Boston, Mass.).

| ODC activity after preincubation of extracts (ODC) | Compound | cell morphology [1] | most frequent side effects [2] | Rb phosphorylation (Ser795, Ser807/811) [3] | cell morphology (FIG. 4b) (LAN-1 cells) | cell morphology (FIG. 4b) (NMB-7 cells) |
| --- | --- | --- | --- | --- | --- | --- |
| – | N=C(N)c1cccc2c1CC/C2=N\N=C(N)N [SAM486A, 4-amidinoindan-1-one 2′-amidinohydrazone] | no visible changes in cell morphology | nausea, vomiting, diarrhea, asthenia, abdominal pain, and flushing | much less pronounced | – | – |
| complete loss of ODC activity | NCCC[C@](N)(C(=O)O)C(F)F [DFMO, α-difluoromethylornithine] | no visible changes in cell morphology | – | strong hypophosphorylation of Rb | changed into spindle-like cells with neurite-like extensions | formed large polynucleate cell aggregates with only very short extensions |
